Reference: patent publication US10683279B2, “Apoptosis signal-regulating kinase 1 inhibitors and methods of use thereof” (Enanta Pharmaceuticals, Inc., priority 2017, dated 2020)

Target: ASK1 (Homo sapiens (Human), UniProt Q99683)
Test: ASK1 kinase inhibition, HTRF KinEASE Assay System (TR-FRET)
Type: biochemical
Details: 5 nM ASK1 kinase, 1 uM STK3 peptide substrate, 100 uM ATP, 3 hours
Description: The ability (IC50) of compounds to inhibit ASK1 kinase activity was determined by HTRF® KinEASE™ Assay System.
ASK1 was purchased from Thermofisher (Catalogue # PV401.1), ATP was purchased from Sigma (Catalogue # A7699), HTRF® KinEASE™ Assay System was obtained from Cisbio (Bedford, Mass). ½ Area plate was purchased from Perkin Elmer (Catalogue # #6005560). HTRF® KinEASE™-STK is a generic method for measuring serine/threonine kinase activities using a time-resolved fluorescence resonance energy transfer (TR-FRET) immunoassay. The IC50 value for each compound was determined in the presence of compound (various concentration from 0 to 10 μM) and a fixed amount of ATP and peptide substrates. The test compound, luM STK3 peptide substrate, and 5 nM of ASK1 kinase are incubated with kinase reaction buffer containing 50 mM HEPES pH 7.5, 0.01% BRIJ-35, 10 mM MgCl2, and 1 mM EGTA for 30 minutes. 100 uM ATP is added to start kinase reaction and incubated for 3 hours. The STK3-antibody labeled with Eu^3+-Cryptate and 125 nM streptavidin-XL665 are mixed in a single addition with stop reagents provided by the Cisbio kit used to stop the kinase reaction. Fluorescence is detected using an Envision Multilabeled 2014 reader from PerkinElmer. The Fluorescence is measured at 615 nm (Cryptate) and 665 nm (XL665) and a ratio of 665 nm/615 nm is calculated for each well. The resulting TR-FRET is proportional to the phosphorylation level. Staurosporine was used as the positive control. IC50 was determined by XLfit 5.3.
By using above method, the inhibition of ASK1 was tested for the compound of formula (I). IC50 ranges are as follows: A<1 nM; 1 nM<B<10 nM; 10 nM<C<100 nM; 100 nM<D

Sequence of ASK1 (Q99683 whole entry): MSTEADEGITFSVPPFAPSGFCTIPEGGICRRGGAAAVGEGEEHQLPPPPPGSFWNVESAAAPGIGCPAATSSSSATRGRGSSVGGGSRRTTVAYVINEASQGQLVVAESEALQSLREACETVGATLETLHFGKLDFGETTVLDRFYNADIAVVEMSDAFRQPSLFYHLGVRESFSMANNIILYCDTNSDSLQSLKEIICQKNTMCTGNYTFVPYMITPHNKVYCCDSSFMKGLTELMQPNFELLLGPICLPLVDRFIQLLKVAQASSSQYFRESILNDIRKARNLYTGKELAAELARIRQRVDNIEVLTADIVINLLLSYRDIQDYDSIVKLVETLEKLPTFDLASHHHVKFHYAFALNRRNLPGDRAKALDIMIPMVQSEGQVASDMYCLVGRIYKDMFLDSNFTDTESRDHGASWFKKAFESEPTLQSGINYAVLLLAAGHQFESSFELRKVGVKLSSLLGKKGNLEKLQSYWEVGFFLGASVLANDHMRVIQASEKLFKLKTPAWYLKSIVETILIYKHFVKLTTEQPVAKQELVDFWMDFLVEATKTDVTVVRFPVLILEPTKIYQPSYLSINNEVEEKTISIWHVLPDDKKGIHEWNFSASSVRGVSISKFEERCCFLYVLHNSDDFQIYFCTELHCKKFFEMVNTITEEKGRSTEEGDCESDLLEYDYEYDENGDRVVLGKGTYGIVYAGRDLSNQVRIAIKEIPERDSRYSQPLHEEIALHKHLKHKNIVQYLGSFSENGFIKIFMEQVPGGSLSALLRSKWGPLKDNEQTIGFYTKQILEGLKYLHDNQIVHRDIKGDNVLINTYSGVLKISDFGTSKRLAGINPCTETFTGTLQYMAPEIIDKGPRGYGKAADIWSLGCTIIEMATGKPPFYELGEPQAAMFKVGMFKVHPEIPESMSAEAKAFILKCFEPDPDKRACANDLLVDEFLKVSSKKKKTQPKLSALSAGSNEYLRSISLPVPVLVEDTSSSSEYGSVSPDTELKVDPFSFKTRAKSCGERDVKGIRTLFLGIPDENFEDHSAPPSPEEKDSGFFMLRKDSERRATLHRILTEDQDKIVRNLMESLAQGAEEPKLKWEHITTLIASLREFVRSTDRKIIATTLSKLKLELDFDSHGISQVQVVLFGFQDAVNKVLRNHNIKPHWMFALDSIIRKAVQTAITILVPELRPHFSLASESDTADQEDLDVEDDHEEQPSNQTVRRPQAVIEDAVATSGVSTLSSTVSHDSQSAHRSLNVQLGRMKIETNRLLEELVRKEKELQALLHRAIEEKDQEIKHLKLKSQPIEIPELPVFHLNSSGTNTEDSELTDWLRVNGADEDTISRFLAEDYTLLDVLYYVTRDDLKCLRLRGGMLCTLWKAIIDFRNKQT

Row | Structure (SMILES) | IC50 [nM]
1 | CC(=O)OC[C@H](C)n1nnnc1-c1cccc(NC(=O)c2cc(-n3cnc(C4CC4)c3)c(C)cc2F)n1 [Example 4a, (S)-2-(5-(6-(5-(4-cyclopropyl-1H-imidazol-1-yl)-2-fluoro-4-methyl-benzamido)pyridin-2-yl)-1H-tetrazol-1-yl)propyl acetate] | 1 to 10
2 | CC(C)n1nnnc1-c1nc(NC(=O)c2cc(-n3cnc(C4CC4)c3)c(C(F)F)cn2)cs1 [Example 56a] | 1 to 10
3 | CC(=O)NC[C@@H](C)n1nnnc1-c1cccc(NC(=O)c2cc(-n3cnc(C4CC4)c3)c(C)cc2F)n1 [Example 20a] | 10 to 100
4 | Cc1cc(F)c(C(=O)Nc2cccc(-c3nnnn3C(C)C)n2)cc1-n1cnc(C2CC2)c1 [Example 1a, 5-(4-cyclopropyl-1H-imidazol-1-yl)-2-fluoro-N-(6-(1-isopropyl-1H-tetrazol-5-yl)pyridin-2-yl)-4-methylbenzamide] | 1 to 10
5 | Cc1cc(F)c(C(=O)Nc2cccc(-c3cnnn3C(C)C)n2)cc1-n1cnc(C2CC2)c1 [Example 4c, 5-(4-cyclopropyl-1H-imidazol-1-yl)-2-fluoro-N-(6-(1-isopropyl-1H-1,2,3-triazol-5-yl)pyridin-2-yl)-4-methylbenzamide] | 10 to 100
6 | Cc1cnc(C(=O)Nc2cccc(-c3nnnn3[C@H](C)CO)n2)cc1-n1cnc(C(F)(F)F)c1 [Example 51a] | 1 to 10
7 | Cc1cc(F)c(C(=O)Nc2cccc(-n3ccnc3C(C)C)n2)cc1-n1cnc(C2CC2)c1 [Example 3c, 5-(4-cyclopropyl-1H-imidazol-1-yl)-2-fluoro-N-(6-(2-isopropyl-1H-imidazol-1-yl)pyridin-2-yl)-4-methylbenzamide] | > 1000
8 | Cc1cc(F)c(C(=O)Nc2cccc(-c3nnnn3[C@@H](C)CF)n2)cc1-n1cnc(C2CC2)c1 [Example 15a] | 1 to 10
9 | Cc1cc(F)c(C(=O)Nc2cccc(-c3nnnn3[C@@H]3CCOC3)n2)cc1-n1cnc(C2CC2)c1 [Example 17a] | 1 to 10
10 | Cc1cc(F)c(C(=O)Nc2cccc(-c3nnnn3[C@H](C)CCO)n2)cc1-n1cnc(C2CC2)c1 [Example 22a] | 1 to 10
11 | CC(C)n1nnnc1-c1nc(NC(=O)c2cc(-n3cnc(C4CC4)c3)c(F)cn2)cs1 [Example 38a] | 1 to 10
12 | Cc1cc(F)c(C(=O)Nc2cccc(-c3nnnn3C(C)C)c2)cc1-n1cnc(C2CC2)c1 [Example 35a] | 10 to 100
13 | Cc1cc(F)c(C(=O)Nc2cccc(-c3nnnn3C(C)C)n2)cc1-n1cnc(C(C)(C)C)c1 [Example 29a] | 1 to 10
14 | CCCC(=O)OC[C@@H](C)n1nnnc1-c1cccc(NC(=O)c2cc(-n3cnc(C4CC4)c3)c(C)cc2F)n1 [Example 24a] | 10 to 100
15 | Cc1cnc(C(=O)Nc2cccc(-c3nnnn3[C@H](C)CO)n2)cc1-n1cnc(C2CC2)c1 [Example 49a] | 1 to 10
16 | CC(C)n1nnnc1-c1cccc(NC(=O)c2cc(-n3cnc(C4CC4)c3)c(N3CCCCC3)cn2)n1 [Example 40a] | 10 to 100
17 | CC(C)n1nnnc1-c1cccc(NC(=O)c2cc(-n3cnc(C4CC4)c3)c(C(F)F)cc2F)n1 [Example 31a, 5-(4-cyclopropyl-1H-imidazol-1-yl)-4-(difluoromethyl)-2-fluoro-N-(6-(1-isopropyl-1H-tetrazol-5-yl)pyridin-2-yl)benzamide] | 1 to 10
18 | Cc1cc(F)c(C(=O)Nc2cccc(-n3nnnc3C(C)C)n2)cc1-n1cnc(C(C)(C)C)c1 [Example 6b] | 1 to 10
19 | Cc1cc(F)c(C(=O)Nc2cccc(-c3nnnn3C3CCCC3)n2)cc1-n1cnc(C2CC2)c1 [Example 8a] | 1 to 10
20 | CC(C)n1nnnc1-c1cccc(NC(=O)c2cc(-n3cnc(C4CC4)c3)c(F)cn2)n1 [Example 39a] | 1 to 10
21 | Cc1cnc(C(=O)Nc2cccc(-n3nnnc3C(C)C)n2)cc1-n1cnc(C(F)(F)F)c1 [Example 4b] | 10 to 100
22 | CC(C)n1nnnc1-c1cccc(NC(=O)c2cc(-n3cnc(C4CC4)c3)c(C(F)(F)F)cc2F)n1 [Example 37a] | 1 to 10
23 | CC(=O)OC[C@@H](C)n1nnnc1-c1cccc(NC(=O)c2cc(-n3cnc(C4CC4)c3)c(C)cc2F)n1 [Example 6a, (R)-2-(5-(6-(5-(4-cyclopropyl-1H-imidazol-1-yl)-2-fluoro-4-methyl-benzamido)pyridin-2-yl)-1H-tetrazol-1-yl)propyl acetate] | > 100
24 | C[C@H](CO)n1nnnc1-c1cccc(NC(=O)c2cc(-n3cnc(C4CC4)c3)c(CO)cc2F)n1 [Example 33a, (R)-5-(4-cyclopropyl-1H-imidazol-1-yl)-2-fluoro-4-(hydroxymethyl)-N-(6-(1-(1-hydroxypropan-2-yl)-1H-tetrazol-5-yl)pyridin-2-yl)benzamide] | 1 to 10
25 | C[C@H](CO)n1nnnc1-c1cccc(NC(=O)c2cc(-n3cnc(C4CC4)c3)c(C(F)(F)F)cn2)n1 [Example 58a] | 1 to 10
26 | CC(C)n1nnnc1-c1cccc(NC(=O)c2cc(-n3cnc(C4CC4)c3)c(N3CCOCC3)cn2)n1 [Example 46a] | 1 to 10
27 | CC(C)n1nnnc1-c1nc(NC(=O)c2cc(-n3cnc(C4CC4)c3)c(C(F)(F)F)cn2)cs1 [Example 59a] | 1 to 10

Row | Structure (SMILES) | IC50 [nM]
28 | Cc1cc(F)c(C(=O)Nc2cccc(-c3nnnn3[C@@H](C)CO)n2)cc1-n1cnc(C2CC2)c1 [Example 5a, (S)-5-(4-cyclopropyl-1H-imidazol-1-yl)-2-fluoro-N-(6-(1-(1-hydroxypropan-2-yl)-1H-tetrazol-5-yl)pyridin-2-yl)-4-methylbenzamide] | 1 to 10
29 | COc1cc(C)c(-n2cnc(C3CC3)c2)cc1C(=O)Nc1cccc(-c2nnnn2[C@H](C)CO)n1 [Example 61a] | 1 to 10
30 | Cc1cc(F)c(C(=O)Nc2cccc(-c3nnnn3CC(C)C)n2)cc1-n1cnc(C2CC2)c1 [Example 9a] | 10 to 100
31 | CC(C)n1nnnc1-c1nc(NC(=O)c2cc(-n3cnc(C4CC4)c3)c(N3CCCCC3)cn2)cs1 [Example 41a] | 10 to 100
32 | Cc1cc(F)c(C(=O)Nc2cccc(-c3nnnn3C(C)C(F)(F)F)n2)cc1-n1cnc(C2CC2)c1 (centres unmarked) [Example 16a] | 10 to 100
33 | Cc1cc(F)c(C(=O)Nc2ccnc(-c3nnnn3C(C)C)n2)cc1-n1cnc(C2CC2)c1 [Example 34a] | 10 to 100
34 | Cc1cc(F)c(C(=O)Nc2cccc(-c3nnnn3C3CCC3)n2)cc1-n1cnc(C2CC2)c1 [Example 10a] | 1 to 10
35 | C[C@H](CO)n1nnnc1-c1cccc(NC(=O)c2cc(-n3cnc(C4CC4)c3)c(C(F)F)cn2)n1 [Example 55a] | 1 to 10
36 | Cc1cnc(C(=O)Nc2cccc(-n3nnnc3C(C)C)n2)cc1-n1cnc(C2CC2)c1 [Example 3b] | 1 to 10
37 | Cc1cc(F)c(C(=O)Nc2cccc(-c3nnnn3[C@H]3C[C@@H](O)C3)n2)cc1-n1cnc(C2CC2)c1 [Example 21a] | 1 to 10
38 | Cc1cnc(C(=O)Nc2cccc(-c3nnnn3C(C)C)n2)cc1-n1cnc(C(F)(F)F)c1 [Example 50a] | 1 to 10
39 | Cc1cc(F)c(C(=O)Nc2cccc(-c3nnnn3[C@H](C)CO)n2)cc1-n1cnc(C(C)(C)C)c1 [Example 30a] | 1 to 10
40 | CC(C)n1nnnc1-c1cccc(NC(=O)c2cc(-n3cnc(C4CC4)c3)c(C(F)(F)F)cn2)n1 [Example 57a] | 1 to 10
41 | COc1cc(C)c(-n2cnc(C3CC3)c2)cc1C(=O)Nc1cccc(-c2nnnn2C(C)C)n1 [Example 60a] | 1 to 10
42 | CC(C)n1nnnc1-c1nc(NC(=O)c2cc(-n3cnc(C4CC4)c3)c(N3CCOCC3)cn2)cs1 [Example 45a] | 1 to 10
43 | CC(C)n1nnnc1-c1cccc(NC(=O)c2cc(-n3cnc(C4CC4)c3)c(C(F)F)cn2)n1 [Example 54a] | 1 to 10
44 | Cc1cc(F)c(C(=O)Nc2cccc(-c3nnnn3CC(C)(C)C)n2)cc1-n1cnc(C2CC2)c1 [Example 13a] | 1 to 10
45 | Cc1cc(F)c(C(=O)Nc2cccc(-c3nnnn3C(C)C)n2)cc1-n1cnc(C(F)(F)F)c1 [Example 27a] | 10 to 100
46 | CC(=O)OCC[C@@H](C)n1nnnc1-c1cccc(NC(=O)c2cc(-n3cnc(C4CC4)c3)c(C)cc2F)n1 [Example 23a] | 1 to 10
47 | CC(C)n1nnnc1-c1nc(NC(=O)c2cc(-n3cnc(C4CC4)c3)c(N3CCCC3)cn2)cs1 [Example 42a] | 1 to 10
48 | Cc1cnc(C(=O)Nc2cccc(-c3nnnn3C(C)C)n2)cc1-n1cnc(C(C)(C)C)c1 [Example 52a] | 1 to 10
49 | CC(C)n1nnnc1-c1nc(NC(=O)c2cc(-n3cnc(C4CC4)c3)c(N3CCN(C)CC3)cn2)cs1 [Example 44a] | 1 to 10
50 | CC(C)n1nnnc1-c1cccc(NC(=O)c2cc(-n3cnc(C4CC4)c3)c(N3CCN(C)CC3)cn2)n1 [Example 47a] | 1 to 10
51 | CC(C)n1nnnc1-c1cccc(NC(=O)c2cc(-n3cnc(C4CC4)c3)c(N3CCCC3)cn2)n1 [Example 43a] | 1 to 10
52 | Cc1cc(F)c(C(=O)Nc2cccc(-c3nnnn3C(CO)CO)n2)cc1-n1cnc(C2CC2)c1 [Example 26a] | < 1
53 | Cc1cc(F)c(C(=O)Nc2cccc(-c3nnnn3[C@H]3CCOC3)n2)cc1-n1cnc(C2CC2)c1 [Example 18a] | 1 to 10
